Assay [1] relates to Plasmodium berghei. The assay is described as follows: In vivo antimalarial activity against Plasmodium berghei infected mice (Mus musculus) at 640 mg/kg subcutaneous single dose. The format is functional.
Assay [2] has as its system Plasmodium berghei. The assay can be described thus: In vivo antimalarial activity against Plasmodium berghei infected mice (Mus musculus) at 640 mg/kg subcutaneous single dose; NC=non-curative. The format is functional, organism-based. The arrangement: dose 640 mg/kg.

The structures appear in SMILES notation.

In ChEMBL document CHEMBL1129401, “Molecular electronic properties of a series of 4-quinolinecarbinolamines define antimalarial activity profile” (1996) one finds MfI data, which are given here for 41 molecules.

In the assay on Plasmodium berghei [1], `COc1cc(C(F)(F)F)c2nc(C(F)(F)F)cc(C(O)C3CCCCN3)c2c1` (stereo unspecified) returned a MfI of 0.81.

The molecule `Cc1cccc2c(C(O)C3CCCCN3)cc(-c3ccc(F)cc3)nc12` (stereo unspecified) displayed a MfI with Plasmodium berghei [1] of 0.05. Regarding `Cc1cc(C)c2nc(C(F)(F)F)cc(C(O)C3CCCCN3)c2c1` (stereo unspecified), the MfI entry in the assay on Plasmodium berghei [2] is “Noncurative dose”. `Cc1ccc(-c2cc(C(O)C3CCCCN3)c3cc(C)cc(C)c3n2)cc1` (stereo unspecified) yielded a MfI in the assay with Plasmodium berghei [1] of 0.1. Turning to `Cc1cccc2c(C(O)C3CCCCN3)cc(C(F)(F)F)nc12` (stereo unspecified), the MfI entry in the assay with Plasmodium berghei [2] is reported as “Noncurative dose”. For the molecule `O=C(Nc1cccc(C(F)(F)F)c1)c1cc(C(O)C2CCCCN2)c2cccc(C(F)(F)F)c2n1` (stereo unspecified), in the assay with Plasmodium berghei [2], the MfI entry was “Noncurative dose”.

With `Cc1cc(C)c2nc3c(c(C(O)C4CCCCN4)c2c1)CCC3` (stereo unspecified), in the assay with Plasmodium berghei [2], the MfI result is on record as “Noncurative dose”. `OC(c1cc(C(F)(F)F)nc2c(Cl)cccc12)C1CCCCN1` (stereo unspecified): the MfI in the assay on Plasmodium berghei [1] is given as 0.03.

In the assay with Plasmodium berghei [1], `OC(c1cc(-c2ccc(Cl)cc2)nc2c(Cl)cc(Cl)cc12)C1CCCCN1` (stereo unspecified) came in with a MfI of 1.29. Regarding `OC(c1cc(C(F)(F)F)nc2c(Cl)cc(Cl)cc12)C1CCCCN1` (stereo unspecified), the MfI in the assay with Plasmodium berghei [1] was determined as 0.17. The molecule `OC(c1cc(-c2ccccc2)nc2c(Cl)cccc12)C1CCCCN1` (stereo unspecified) displayed a MfI in the assay on Plasmodium berghei [1] of 0.05. With `Cc1cc(C)c2nc(CC/C=C/c3ccc(Cl)cc3)cc(C(O)C3CCCCN3)c2c1` (stereo unspecified), the MfI entry in the assay with Plasmodium berghei [2] was “Noncurative dose”. Consider `Cc1cc(C)c2nc(Oc3ccc(Cl)cc3)cc(C(O)C3CCCCN3)c2c1` (stereo unspecified), for which the MfI with Plasmodium berghei [1] turned out to be 0.03. In the case of `Cc1cc(C(O)C2CCCCN2)c2cc(Cl)cc(Cl)c2n1` (stereo unspecified), the MfI result with Plasmodium berghei [2] is “Noncurative dose”.

As to `OC(c1ccnc2c(C(F)(F)F)cccc12)C1CCCCN1` (stereo unspecified), the MfI entry in the assay with Plasmodium berghei [2] is given as “Noncurative dose”. In the case of `OC(c1cc(Oc2ccc(Cl)c(Cl)c2)nc2c(Cl)cc(Cl)cc12)C1CCCCN1` (stereo unspecified), the MfI in the assay with Plasmodium berghei [1] stood at 0.87.

Consider `OC(c1cc(-c2ccc(Cl)cc2)nc2c(Cl)cccc12)C1CCCCN1` (stereo unspecified), for which, in the assay on Plasmodium berghei [2], the MfI entry is on record as “Noncurative dose”.

For `Cc1ccc(-c2cc(C(O)C3CCCCN3)c3cccc(C(F)(F)F)c3n2)cc1` (stereo unspecified), the MfI with Plasmodium berghei [1] was 0.09. Same read-out and setting: under `OC(c1cc(C(F)(F)F)nc2c1cc(Cl)c1ccccc12)C1CCCCN1` (stereo unspecified) stands 0.12. For `OC(c1cc(C(F)(F)F)nc2c(C(F)(F)F)cccc12)C1CCCCN1` (stereo in doubt; 1a) [MEFLOQUINE], the MfI with Plasmodium berghei [1] (640 mg/kg) is on record as 1.

`OC(c1cc(C(F)(F)F)nc2c1ccc1ccccc12)C1CCCCN1` (stereo unspecified) yielded a MfI in the assay with Plasmodium berghei [1] of 0.13. As to `NC(=O)c1cc(C(O)C2CCCCN2)c2cccc(C(F)(F)F)c2n1` (stereo unspecified), the MfI entry in the assay on Plasmodium berghei [2] was “Noncurative dose”. As for `Cc1ccc(-c2cc(C(O)C3CCCCN3)c3cccc(C)c3n2)cc1` (stereo unspecified), the MfI result in the assay with Plasmodium berghei [2] is given as “Noncurative dose”. `Cc1cccc2c(C(O)C3CCCCN3)cc(-c3ccc(Cl)cc3)nc12` (stereo unspecified) displayed a MfI in the assay on Plasmodium berghei [1] of 0.07. With `OC(c1cc(C(F)(F)F)nc2c(C(F)(F)F)cccc12)C1CCCCN1` (stereo in doubt; 1d) [MEFLOQUINE], the MfI with Plasmodium berghei [1] (640 mg/kg) came to 0.81. On to `Cc1cc(C)c2nc(-c3ccc(F)cc3)cc(C(O)C3CCCCN3)c2c1` (stereo unspecified), for which the MfI in the assay on Plasmodium berghei [1] came to 0.03. In the assay with Plasmodium berghei [1], `OC(c1cc(-c2ccccc2)nc2c1ccc1ccccc12)C1CCCCN1` (stereo unspecified) registered a MfI of 0.1.

With `OC(c1cc(-c2ccccc2)nc2c(C(F)(F)F)cccc12)C1CCCCN1` (stereo unspecified), the MfI with Plasmodium berghei [1] worked out at 0.11. The same measure, in the same setting: then `COc1ccc(-c2cc(C(O)C3CCCCN3)c3cccc(C(F)(F)F)c3n2)cc1` (stereo unspecified), with 0.07; and `OC(c1cc(-c2cccc(C(F)(F)F)c2)nc2c(C(F)(F)F)cccc12)C1CCCCN1` (stereo unspecified), with 1.2. Regarding `OC(c1cc(C(F)(F)F)nc2c(F)cccc12)C1CCCCN1` (stereo unspecified), in the assay on Plasmodium berghei [2], the MfI result was “Noncurative dose”. In the case of `Cc1cc(C)c2nc(-c3ccc(Cl)cc3)cc(C(O)C3CCCCN3)c2c1` (stereo unspecified), in the assay with Plasmodium berghei [1], the MfI stood at 0.03. Same read-out and setting: then `Cc1cc(C)c2nc(Nc3ccc(Cl)cc3)cc(C(O)C3CCCCN3)c2c1` (stereo unspecified), with 0.03. As to `Cc1cccc2c(C(O)C3CCCCN3)cc(-c3ccccc3)nc12` (stereo unspecified), the MfI result in the assay on Plasmodium berghei [2] is listed as “Noncurative dose”. The molecule `COc1ccc(-c2cc(C(O)C3CCCCN3)c3cc(C)cc(C)c3n2)cc1` (stereo unspecified) returned a MfI in the assay on Plasmodium berghei [1] of 0.03. Still for that read-out and setting: under `OC(c1cc(-c2ccc(Cl)cc2)nc2c(C(F)(F)F)cccc12)C1CCCCN1` (stereo unspecified) stands 0.31; under `OC(c1cc(Oc2ccc(Cl)cc2)nc2c(Cl)cc(Cl)cc12)C1CCCCN1` (stereo unspecified), 0.8. With `OC(c1cc(-c2ccc(Cl)cc2)nc2c1ccc1ccccc12)C1CCCCN1` (stereo unspecified), in the assay with Plasmodium berghei [2], the MfI result is “Noncurative dose”. `OC(c1ccnc2c(Cl)cccc12)C1CCCCN1` (stereo unspecified): in the assay with Plasmodium berghei [2], the MfI entry is recorded as “Noncurative dose”. Still for that read-out and setting: then `OC(c1ccnc2c(Cl)cc(Cl)cc12)C1CCCCN1` (stereo unspecified), with “Noncurative dose”. On to `OC(c1cc(-c2ccccc2)nc2c(Cl)cc(Cl)cc12)C1CCCCN1` (stereo unspecified), for which, in the assay with Plasmodium berghei [1], the MfI stood at 0.04.
